# Source: ChEMBL document CHEMBL1649305, “Novel protease inhibitors (PIs) containing macrocyclic components and 3(R),3a(S),6a(R)-bis-tetrahydrofuranylurethane that are potent against multi-PI-resistant HIV-1 variants in vitro” (Antimicrob Agents Chemother, 2010)
# Calls of active or inactive are those of the source. The calls are words filed in the database; no cut-off is given here.
# What was measured:
# [1] = tested on: Human immunodeficiency virus type 1 protease (Human immunodeficiency virus 1), Q72874 [L24I,V82I,I84V]; assay: Inhibition of protease L24I/V82I/I84V[…] dimerization in HIV1 infected in COS7 cells at 0.1 uM by FRET based assay; assay type: cell-based; conditions: COS-7
# Sequence of Human immunodeficiency virus type 1 protease (Human immunodeficiency virus 1), Q72874 [L24I,V82I,I84V] (Q72874 entry or part of it L24I/V82I/I84V): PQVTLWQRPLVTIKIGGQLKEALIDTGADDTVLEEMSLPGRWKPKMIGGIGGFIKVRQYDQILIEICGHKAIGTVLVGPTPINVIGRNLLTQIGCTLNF
# [2] = tested on: Human immunodeficiency virus 1; assay: Antiviral activity against HIV1 NL4-3 infected in human MT4 cells after 50 passages by MTT assay; assay type: functional, organism-based
# [3] = tested on: Human immunodeficiency virus 1; assay: Antiviral activity against HIV1 NL4-3 infected in human MT4 cells at 1 uM after 37 passages by MTT assay; assay type: functional, organism-based
# [4] = tested on: Human immunodeficiency virus 1; assay: Antiviral activity against HIV1 expressing protease L10F/M46M,I/Q61Q mutant infected in human MT4 cells selected at 1 uM of GRL-396 by MTT assay; assay type: functional, organism-based; conditions: Human immunodeficiency virus 1, MT4
# [5] = Cytotoxicity against human MT2 cells after 7 days by MTT assay; assay type: cell-based
# [6] = tested on: Human immunodeficiency virus 1; assay: Antiviral activity against HIV1 NL4-3 infected in human MT4 cells at 1 uM after 33 passages by MTT assay; assay type: functional, organism-based
# [7] = Selectivity ratio of CC50 for human MT2 cells to EC50 for HIV1 LAI infected human MT2 cells; assay type: ADME, cell-based; conditions: MT2 cells (CC50) and HIV1 LAI infected MT2 cells (EC50)
# [8] = tested on: Human immunodeficiency virus 1; assay: Antiviral activity against HIV1 LAI infected in human MT2 cells by MTT assay; assay type: functional, organism-based; conditions: Human immunodeficiency virus 1, LAI
# [9] = tested on: Human immunodeficiency virus 1; assay: Antiviral activity against HIV1 expressing protease L10F/M46I/T91S mutant infected in human MT4 cells selected at 1 uM of GRL-246 by MTT assay; assay type: functional, organism-based; conditions: Human immunodeficiency virus 1, MT4
# [10] = tested on: Human immunodeficiency virus 1; assay: Antiviral activity against HIV1 expressing protease L10I/L24I/M46I/V82I/I84V mutant infected in human MT4 cells selected after 50 passages of GRL-216 by MTT assay; assay type: functional, organism-based; conditions: Human immunodeficiency virus 1, MT4
# [11] = tested on: Human immunodeficiency virus 1; assay: Antiviral activity against HIV1 expressing protease L10F/M46L/I50V/A71Vmutant infected in human MT4 cells selected at 1 uM of GRL-286 by MTT assay; assay type: functional, organism-based; conditions: Human immunodeficiency virus 1, MT4
# [12] = tested on: Human immunodeficiency virus 1; assay: Antiviral activity against HIV1 NL4-3 infected in human MT4 cells at 1 uM after 20 passages by MTT assay; assay type: functional, organism-based
compound,measurement,setting,value
COc1ccc2c(c1)OC/C=C/CCCCN(C[C@@H](O)[C@H](Cc1ccccc1)NC(=O)O[C@H]1CO[C@H]3OCC[C@H]31)S2(=O)=O,inhibition,[1],Active
same,Activity,[2],inactive
same,Activity,[3],inactive
same,EC50,[4],520 nM
same,CC50 at 168 h,[5],44900 nM
same,Activity,[6],inactive
same,selectivity ratio,[7],3200
same,EC50,[8],14 nM
same,EC50,[9],370 nM
same,EC50,[10],240 nM
same,EC50,[11],> 1000 nM
same,Activity,[12],inactive
